From US6534524B1, “Indazole compounds and pharmaceutical compositions for inhibiting protein kinases, and methods for their use” (Agouron Pharmaceuticals, Inc., priority 1999, dated 2003)

Tested on: human umbilical vein endothelial cells (HUVEC)
Assay: HUVEC proliferation assay (VEGF-stimulated, MTT);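 on % inhibition of the proliferation of HUVEC: relative to VEGF-stimulated control minus starvation-medium baseline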
Assay type: cell-based
Conditions: crude reaction mixtures; for % inhibition of the proliferation of HUVEC: Library II, Y=S; for % inhibition: Library III, HUVEC proliferation, nominal concentration of 0.5 nM
Protocol: HUVEC Proliferation Assay
This assay determines the ability of a test compound to inhibit the growth factor-stimulated proliferation of human umbilical vein endothelial cells (“HUVEC”). HUVEC cells (passage 3-4, Clonetics, Corp.) were thawed into EGM2 culture medium (Clonetics Corp) in T75 flasks. Fresh EGM2 medium was added to the flasks 24 hours later. Four or five days later, cells were exposed to another culture medium (F12K medium supplemented with 10% fetal bovine serum (FBS), 60 μg/mL endothelial cell growth supplement (ECGS), and 0.1 mg/mL heparin). Exponentially-growing HUVEC cells were used in experiments thereafter. Ten to twelve thousand HUVEC cells were plated in 96-well dishes in 100 μl of rich, culture medium (described above). The cells were allowed to attach for 24 hours in this medium. The medium was then removed by aspiration and 105 μl of starvation media (F12K+1% FBS) was added to each well. After 24 hours, 15 μl of test agent dissolved in 1% DMSO in starvation medium or this vehicle alone was added into each treatment well; the final DMSO concentration was 0.1%. One hour later, 30 μl of VEGF (30 ng/mL) in starvation media was added to all wells except those containing untreated controls; the final VEGF concentration was 6 ng/mL. Cellular proliferation was quantified 72 hours later by MTT dye reduction, at which time cells were exposed for 4 hours MTT (Promega Corp.).
For screening compound library plates, one or two concentrations (one well per concentration) were employed, and the % inhibition was calculated by the following formula:
% inhibition=(control−test)÷(control−starvation)
% inhibition=(control-treated)/(control-starvation)×100

[1] = 0.5 mM (column head; text: nominal 0.5 nM)
[2] = 2 mM (column head; text: nominal 2 nM)

Compound: CC1CCCCN1CCCNC(=O)c1ccccc1Sc1ccc2c(/C=C/c3ccccn3)n[nH]c2c1 (centres unmarked)
- % inhibition of the proliferation of HUVEC [1]: 25%
- % inhibition of the proliferation of HUVEC [2]: 15%

Compound: O=C(NC1CCN(Cc2ccccc2)CC1)c1ccccc1Sc1ccc2c(/C=C/c3ccccn3)n[nH]c2c1
- % inhibition of the proliferation of HUVEC [1]: 44%
- % inhibition of the proliferation of HUVEC [2]: 19%

Compound: CN(C)CC(C)(C)CNC(=O)c1ccccc1Sc1ccc2c(/C=C/c3ccccn3)n[nH]c2c1
- % inhibition of the proliferation of HUVEC [1]: 38%
- % inhibition of the proliferation of HUVEC [2]: 5%

Compound: O=C(NC1CCC(O)CC1)c1ccccc1Sc1ccc2c(C=Cc3ccccn3)n[nH]c2c1 (centres unmarked)
- % inhibition of the proliferation of HUVEC [1]: 23%
- % inhibition of the proliferation of HUVEC [2]: 6%

Compound: O=C(O)CCNC(=O)c1ccccc1Sc1ccc2c(/C=C/c3ccccn3)n[nH]c2c1
- % inhibition of the proliferation of HUVEC [1]: 4%
- % inhibition of the proliferation of HUVEC [2]: 20%

Compound: COCCNC(=O)c1ccccc1Sc1ccc2c(/C=C/c3ccccn3)n[nH]c2c1
- % inhibition of the proliferation of HUVEC [1]: 21%
- % inhibition of the proliferation of HUVEC [2]: 60%

Compound: O=C(NCCCn1ccnc1)c1ccccc1Sc1ccc2c(/C=C/c3ccccn3)n[nH]c2c1
- % inhibition of the proliferation of HUVEC [1]: 23%
- % inhibition of the proliferation of HUVEC [2]: 23%

Compound: NS(=O)(=O)c1ccc(CCNC(=O)c2ccccc2Sc2ccc3c(/C=C/c4ccccn4)n[nH]c3c2)cc1
- % inhibition of the proliferation of HUVEC [1]: 26%
- % inhibition of the proliferation of HUVEC [2]: 37%

Compound: CCCCN(CC)CCNC(=O)c1ccccc1Sc1ccc2c(/C=C/c3ccccn3)n[nH]c2c1
- % inhibition of the proliferation of HUVEC [1]: 2%
- % inhibition of the proliferation of HUVEC [2]: 6%

Compound: CN(C)c1ccc(CNC(=O)c2ccccc2Sc2ccc3c(/C=C/c4ccccn4)n[nH]c3c2)cc1
- % inhibition of the proliferation of HUVEC [1]: 32%
- % inhibition of the proliferation of HUVEC [2]: 24%

Compound: O=C(NC(CO)CO)c1ccccc1Sc1ccc2c(/C=C/c3ccccn3)n[nH]c2c1
- % inhibition of the proliferation of HUVEC [1]: 48%
- % inhibition of the proliferation of HUVEC [2]: 8%

Compound: CC(=O)NCCNC(=O)c1ccccc1Sc1ccc2c(/C=C/c3ccccn3)n[nH]c2c1
- % inhibition of the proliferation of HUVEC [1]: 15%
- % inhibition of the proliferation of HUVEC [2]: 27%

Compound: N#CCONC(=O)c1ccccc1Sc1ccc2c(/C=C/c3ccccn3)n[nH]c2c1
- % inhibition of the proliferation of HUVEC [1]: 16%
- % inhibition of the proliferation of HUVEC [2]: 2%

Compound: CS(=O)(=O)NNC(=O)c1ccccc1Sc1ccc2c(/C=C/c3ccccn3)n[nH]c2c1
- % inhibition of the proliferation of HUVEC [1]: 9%
- % inhibition of the proliferation of HUVEC [2]: 1%

Compound: CCn1nccc1NC(=O)c1ccccc1Sc1ccc2c(/C=C/c3ccccn3)n[nH]c2c1
- % inhibition of the proliferation of HUVEC [1]: 26%
- % inhibition of the proliferation of HUVEC [2]: 2%

Compound: Cc1cc(NC(=O)c2ccccc2Sc2ccc3c(/C=C/c4ccccn4)n[nH]c3c2)n(C)n1
- % inhibition of the proliferation of HUVEC [1]: 39%
- % inhibition of the proliferation of HUVEC [2]: 13%

Compound: NC(=O)NNC(=O)c1ccccc1Sc1ccc2c(/C=C/c3ccccn3)n[nH]c2c1
- % inhibition of the proliferation of HUVEC [1]: 19%
- % inhibition of the proliferation of HUVEC [2]: 5%

Compound: O=C(NCCCO)c1ccccc1Sc1ccc2c(/C=C/c3ccccn3)n[nH]c2c1
- % inhibition of the proliferation of HUVEC [1]: 24%
- % inhibition of the proliferation of HUVEC [2]: 31%

Compound: Cc1noc(NC(=O)c2ccccc2Sc2ccc3c(/C=C/c4ccccn4)n[nH]c3c2)c1C
- % inhibition of the proliferation of HUVEC [1]: 15%
- % inhibition of the proliferation of HUVEC [2]: 36%

Compound: CC1CCCC(NC(=O)c2ccccc2Sc2ccc3c(/C=C/c4ccccn4)n[nH]c3c2)C1 (centres unmarked)
- % inhibition of the proliferation of HUVEC [1]: 69%
- % inhibition of the proliferation of HUVEC [2]: 59%

Compound: CC1CCC(NC(=O)c2ccccc2Sc2ccc3c(/C=C/c4ccccn4)n[nH]c3c2)CC1 (centres unmarked)
- % inhibition of the proliferation of HUVEC [1]: −11%
- % inhibition of the proliferation of HUVEC [2]: 42%

Compound: O=C(NNCC(F)(F)F)c1ccccc1Sc1ccc2c(/C=C/c3ccccn3)n[nH]c2c1
- % inhibition of the proliferation of HUVEC [1]: 16%
- % inhibition of the proliferation of HUVEC [2]: 42%

Compound: Cc1csc(NC(=O)c2ccccc2Sc2ccc3c(/C=C/c4ccccn4)n[nH]c3c2)n1
- % inhibition of the proliferation of HUVEC [1]: 15%
- % inhibition of the proliferation of HUVEC [2]: 95%

Compound: Cc1cnc(NC(=O)c2ccccc2Sc2ccc3c(/C=C/c4ccccn4)n[nH]c3c2)s1
- % inhibition of the proliferation of HUVEC [1]: 20%
- % inhibition of the proliferation of HUVEC [2]: 92%

Compound: CN1CCN(NC(=O)c2ccccc2Sc2ccc3c(/C=C/c4ccccn4)n[nH]c3c2)CC1
- % inhibition of the proliferation of HUVEC [1]: 19%
- % inhibition of the proliferation of HUVEC [2]: −1%

Compound: CCCCC(CC)NC(=O)c1ccccc1Sc1ccc2c(/C=C/c3ccccn3)n[nH]c2c1 (centres unmarked)
- % inhibition of the proliferation of HUVEC [1]: 31%
- % inhibition of the proliferation of HUVEC [2]: 30%

Compound: CCCCCC(C)NC(=O)c1ccccc1Sc1ccc2c(/C=C/c3ccccn3)n[nH]c2c1 (centres unmarked)
- % inhibition of the proliferation of HUVEC [1]: −1%
- % inhibition of the proliferation of HUVEC [2]: 14%

Compound: CC(C)CCC(C)NC(=O)c1ccccc1Sc1ccc2c(/C=C/c3ccccn3)n[nH]c2c1 (centres unmarked)
- % inhibition of the proliferation of HUVEC [1]: 6%
- % inhibition of the proliferation of HUVEC [2]: 44%

Compound: CCCC(CCC)NC(=O)c1ccccc1Sc1ccc2c(/C=C/c3ccccn3)n[nH]c2c1
- % inhibition of the proliferation of HUVEC [1]: 1%
- % inhibition of the proliferation of HUVEC [2]: 52%

Compound: CC(C)C(NC(=O)c1ccccc1Sc1ccc2c(/C=C/c3ccccn3)n[nH]c2c1)C(C)C
- % inhibition of the proliferation of HUVEC [1]: 18%
- % inhibition of the proliferation of HUVEC [2]: −2%

Compound: O=C1CSC(NC(=O)c2ccccc2Sc2ccc3c(/C=C/c4ccccn4)n[nH]c3c2)=N1
- % inhibition of the proliferation of HUVEC [1]: 9%
- % inhibition of the proliferation of HUVEC [2]: −9%

Compound: CCCCC(=O)NNC(=O)c1ccccc1Sc1ccc2c(/C=C/c3ccccn3)n[nH]c2c1
- % inhibition of the proliferation of HUVEC [1]: 40%
- % inhibition of the proliferation of HUVEC [2]: 94%

Compound: O=C(NCCC1OCCO1)c1ccccc1Sc1ccc2c(/C=C/c3ccccn3)n[nH]c2c1
- % inhibition of the proliferation of HUVEC [1]: 38%
- % inhibition of the proliferation of HUVEC [2]: 68%

Compound: CC(C)OCCCNC(=O)c1ccccc1Sc1ccc2c(/C=C/c3ccccn3)n[nH]c2c1
- % inhibition of the proliferation of HUVEC [1]: 34%
- % inhibition of the proliferation of HUVEC [2]: 99%

Compound: CC(NC(=O)c1ccccc1Sc1ccc2c(/C=C/c3ccccn3)n[nH]c2c1)c1ccccc1 (centres unmarked)
- % inhibition of the proliferation of HUVEC [1]: 30%
- % inhibition of the proliferation of HUVEC [2]: 94%

Compound: Cc1ccccc1CNC(=O)c1ccccc1Sc1ccc2c(/C=C/c3ccccn3)n[nH]c2c1
- % inhibition of the proliferation of HUVEC [1]: 24%
- % inhibition of the proliferation of HUVEC [2]: 99%

Compound: Cc1ccc(CNC(=O)c2ccccc2Sc2ccc3c(/C=C/c4ccccn4)n[nH]c3c2)cc1
- % inhibition of the proliferation of HUVEC [1]: 20%
- % inhibition of the proliferation of HUVEC [2]: 92%

Compound: O=C(NCCc1ccccc1)c1ccccc1Sc1ccc2c(/C=C/c3ccccn3)n[nH]c2c1
- % inhibition of the proliferation of HUVEC [1]: 15%
- % inhibition of the proliferation of HUVEC [2]: 99%

Compound: CN(NC(=O)c1ccccc1Sc1ccc2c(/C=C/c3ccccn3)n[nH]c2c1)c1ccccc1
- % inhibition of the proliferation of HUVEC [1]: 16%
- % inhibition of the proliferation of HUVEC [2]: 37%

Compound: O=C(NN1CCCC1)c1ccccc1Sc1ccc2c(/C=C/c3ccccn3)n[nH]c2c1
- % inhibition of the proliferation of HUVEC [1]: 17%
- % inhibition of the proliferation of HUVEC [2]: 23%

Compound: O=C(NNC(=O)c1ccccc1Sc1ccc2c(/C=C/c3ccccn3)n[nH]c2c1)c1ccc[nH]1
- % inhibition of the proliferation of HUVEC [1]: 60%
- % inhibition of the proliferation of HUVEC [2]: 99%

Compound: O=Nc1c(O)nc(O)nc1NC(=O)c1ccccc1Sc1ccc2c(/C=C/c3ccccn3)n[nH]c2c1
- % inhibition: −18%

Compound: O=C(Nc1ncc([N+](=O)[O-])s1)c1ccccc1Sc1ccc2c(/C=C/c3ccccn3)n[nH]c2c1
- % inhibition: −15%

Compound: O=C(Nc1ccc2c(c1)OCCO2)c1ccccc1Sc1ccc2c(/C=C/c3ccccn3)n[nH]c2c1
- % inhibition: −1%

Compound: O=C(Nc1cccc(F)c1)c1ccccc1Sc1ccc2c(/C=C/c3ccccn3)n[nH]c2c1
- % inhibition: −11%

Compound: O=C(Nc1cccc2cccnc12)c1ccccc1Sc1ccc2c(/C=C/c3ccccn3)n[nH]c2c1
- % inhibition: 3%

Compound: CC(C)Oc1cccc(NC(=O)c2ccccc2Sc2ccc3c(/C=C/c4ccccn4)n[nH]c3c2)c1
- % inhibition: 1%

Compound: CSc1nc(NC(=O)c2ccccc2Sc2ccc3c(/C=C/c4ccccn4)n[nH]c3c2)ns1
- % inhibition: −27%
